Measurements reported in US10653739B2, “Medicinal ambrosia maritima extracts” (priority 2015, dated 2020).

Columns and labels:
[1] = system: UM-UC-17 bladder cancer cell line; assay: MTS IC50, UM-UC-17 bladder cancer cell line; type: cell-based; details: 1000 cells/well
Method: (§1) MTS was used to evaluate IC50 (drug concentration causing 50% inhibition of the desired activity) for SLs on various bladder, prostate, breast, lung and pancreatic cancer cell lines.
(§2) The MTS test was then conducted to evaluate the different IC50 of multiple cell lines. Purification was performed to separate the organic extract of SLs into different components. Micromolar doses, instead of micrograms, as determined by the molecular weight of the different SLs, Parthenin, Ambrosin, Damsin, and Neoambrosin, were tested in vitro. Ideally, for drug treatments, micromolar weights between 10-15 are preferred.

[2] = system: MDA-MB-231 breast cancer cell line; assay: MTS IC50, MDA-MB-231 breast cancer cell line; type: cell-based; details: for IC50: Homo sapiens, MDA-MB-231, individual SLs, MTS
Method: as §1
Several TNBC cell lines were tested in vitro and were treated with serial concentrations of the extracted SLs from Ambrosia maritima to determine IC50.
(§3) The IC50 of the purified SLs, Parthenin, Ambrosin, Damsin, and Neoambrosin, were also tested for MDA-MB-231 cell line (FIG. 22), MDA-MB-468 (Basal Subtype Normal) cell line (FIG. 23), and BT-474 cell line (FIG. 24), an invasive ductal carcinoma cell line (luminal subtype B).
(§4) Similar tests were performed with the organic extract from Ambrosia hispida.

[3] = system: UM-UC-15 bladder cancer cell line; assay: MTS IC50, UM-UC-15 bladder cancer cell line; type: cell-based; details: 1000 cells/well
Method: as §1, §2

[4] = system: BT-474 breast cancer cell line; assay: MTS IC50, BT-474 breast cancer cell line; type: cell-based; details: Homo sapiens, individual SLs
Method: as §1, §3

[5] = system: prostate cancer cell line; assay: MTS IC50, prostate cancer cell line; type: cell-based; details: purified sub fractions of the organic extraction
From the text: as §1
The concentration is in μmol. As expected, some of the sub fractions affected the cell line to a much greater extent to others.

[6] = system: UM-UC-9 bladder cancer cell line; assay: MTS IC50, UM-UC-9 bladder cancer cell line; type: cell-based; details: 1000 cells/well
Method: as §1, §2

[7] = system: UM-UC-7 bladder cancer cell line; assay: MTS IC50, UM-UC-7 bladder cancer cell line; type: cell-based; details: 1000 cells/well
Method: as §1, §2

[8] = system: MDA-MB-468 breast cancer cell line; assay: MTS IC50, MDA-MB-468 breast cancer cell line; type: cell-based; details: Homo sapiens, individual SLs
Method: as §1, §3

[9] = system: BT-20 breast cancer cell line; assay: MTS IC50, BT-20 breast cancer cell line; type: cell-based; details: Ambrosin purified from Ambrosia hispida
Method: as §1, §4

[10] = system: MDA-MB-231 breast cancer cells; assay: Orthotopic MDA-MB-231 breast cancer model; type: in vivo, mice; details: MDA-MB-231 triple negative cell line
Method: Additional in vivo experiments were conducted for three breast cancer cell lines that were orthotopically injected into mice. Orthotopic injection of breast cancer cells is a powerful model to study all aspects of cancer growth. One million cells of each MDA-MB-231, SUM-159 and MDA-MB-468 were injected into the mammary fat pad of mice to form tumors. Once tumors were established, the tumors were treated with the SL-containing organic extraction of Ambrosia maritima at a dose of 200 μM of total SLs/animal daily.
FIGS. 11A-B show the histopathology of the tumor area in the mice treated with the SLs extracted from Ambrosia maritima versus control animals for the SUM-159 and MDA-MB-231 cell lines.
Thus, these components can be purified individually from the SL organic fraction and then combined as a potential treatment.

[11] = system: UM-UC-9 (bladder) and BT-20 (breast) cancer cell line; assay: Bromouridine sequencing of nascent transcription; type: cell-based; details: 3.5 hours treatment
Method: A common method of monitoring RNA changes is by labeling new RNA with Bromouridine, then isolate the RNA to see where the new RNA was made. Bromouridine sequencing is well known in the art.
We used this method to monitor RNA in the UM-UC-9 (bladder) and BT-20 (breast) cancer cell line to detect the level of nascent transcription on the genome after treatment with SLs. Both cell lines were treated with the whole organic fraction at one time, or purified Ambrosin from the organic fraction at different doses for 3.5 hours. The RNA was then labeled with Bromouridine for half an hour and sequenced to detect the level of nascent transcription in the genome.

IC50 [1] [µM]	IC50 [2] [µM]	IC50 [3] [µM]	IC50 [4] [µM]	IC50 [5] [µM]	IC50 ([6]; UM-UC-9, MTS) [µM]	IC50 [7] [µM]	IC50 [8] [µM]	IC50 of purified Ambrosin compared with SL extract of Ambrosia hispida, BT-20 [9]	IC50 of purified Ambrosin compared with SL extract of Ambrosia hispida, MDA-MB-231 ([2]; Ambrosin purified from Ambrosia hispida)	IC50 ([6]; MTS) [µM]	Compound	level of expression of HER2 and p65 in xenografted animals [10]	nascent transcription of genes of apoptotic pathway, reactive oxygen species pathway [11]	nascent transcription of hallmark genes related to cancer progression and proliferation [11]
1.35	1.02	0.991	2.17	2.71	< 10	4.89	0.882	greater IC50	greater IC50	6.25	C=C1C(=O)O[C@@H]2[C@H]1CC[C@H](C)[C@@H]1C=CC(=O)[C@@]21C (single isomer, unassigned) [AMBROSIN, Ambrosin]	significant improves	upregulated	transcribing them at lower level than the control
2.86	1.6	1.06	2.8	1.16		1.09	0.935			4.73	C=C1C(=O)O[C@@H]2[C@H]1CC[C@H](C)[C@@H]1CCC(=O)[C@@]21C (single isomer, unassigned) [DAMSIN, Damsin]	significant improves		
31.8	22.5	146	36.1	264	142	120	9.08				C=C1C(=O)O[C@@H]2[C@H]1CC[C@H](C)C1=CCC(=O)[C@]12C (single isomer, unassigned) [NEOAMBROSIN, Neoambrosin]			

Compound	IC50 [1] [µM]	IC50 [2] [µM]	IC50 [3] [µM]	IC50 [4] [µM]	IC50 [5] [µM]	IC50 ([6]; UM-UC-9, MTS) [µM]	IC50 [7] [µM]	IC50 [8] [µM]	IC50 of purified Ambrosin compared with SL extract of Ambrosia hispida, BT-20 [9]	IC50 of purified Ambrosin compared with SL extract of Ambrosia hispida, MDA-MB-231 ([2]; Ambrosin purified from Ambrosia hispida)	IC50 ([6]; MTS) [µM]	level of expression of HER2 and p65 in xenografted animals [10]	nascent transcription of genes of apoptotic pathway, reactive oxygen species pathway [11]	nascent transcription of hallmark genes related to cancer progression and proliferation [11]
C=C1C(=O)O[C@@H]2[C@H]1CC[C@H](C)[C@]1(O)C=CC(=O)[C@@]21C (single isomer, unassigned) [PARTHENIN, Parthenin]	6.32	4.74	4.9	8.57	4.88	14.2	6.49	1.23						
